# Measured values from ChEMBL document CHEMBL1146711, “A facile synthesis of 1-ethoxy-4-cyano-5-ethoxycarbonyl-3H-azuleno[1,2-c]pyran-3-one, a selective 15-lipoxygenase inhibitor” (Bioorg Med Chem Lett, 2004).
# Key:
# [1] = target: Protein kinase C (PKC) (Homo sapiens) (UniProt O94806+P41743+P17252+P05129+Q05655+P05771+Q05513+Q02156+P24723+Q15139+Q04759); experiment: Inhibition of protein kinase C (No inhibition); format: protein assay
# [2] = target: Cyclooxygenase (Homo sapiens) (UniProt P35354+P23219); experiment: Inhibitory concentration against prostaglandin G/H synthase; No inhibition; format: protein assay
# [3] = target: Phospholipase A2, major isoenzyme (Sus scrofa) (UniProt P00592); experiment: Inhibitory concentration against phospholipase A2; No inhibition
# Chain of Phospholipase A2, major isoenzyme (Sus scrofa) (P00592 23-146 limits assumed): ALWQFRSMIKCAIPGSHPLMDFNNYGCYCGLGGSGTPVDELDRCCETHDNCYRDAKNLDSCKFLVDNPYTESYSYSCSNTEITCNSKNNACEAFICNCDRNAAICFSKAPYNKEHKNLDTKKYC
# [4] = Inhibitory concentration against lipid peroxidase was determined; No inhibition
# [5] = target: T1, Polyunsaturated fatty acid 5-lipoxygenase (Homo sapiens) (UniProt P09917); experiment: Inhibitory concentration against 5-lipoxygenase was determined; No inhibition
# T1 sequence (whole entry): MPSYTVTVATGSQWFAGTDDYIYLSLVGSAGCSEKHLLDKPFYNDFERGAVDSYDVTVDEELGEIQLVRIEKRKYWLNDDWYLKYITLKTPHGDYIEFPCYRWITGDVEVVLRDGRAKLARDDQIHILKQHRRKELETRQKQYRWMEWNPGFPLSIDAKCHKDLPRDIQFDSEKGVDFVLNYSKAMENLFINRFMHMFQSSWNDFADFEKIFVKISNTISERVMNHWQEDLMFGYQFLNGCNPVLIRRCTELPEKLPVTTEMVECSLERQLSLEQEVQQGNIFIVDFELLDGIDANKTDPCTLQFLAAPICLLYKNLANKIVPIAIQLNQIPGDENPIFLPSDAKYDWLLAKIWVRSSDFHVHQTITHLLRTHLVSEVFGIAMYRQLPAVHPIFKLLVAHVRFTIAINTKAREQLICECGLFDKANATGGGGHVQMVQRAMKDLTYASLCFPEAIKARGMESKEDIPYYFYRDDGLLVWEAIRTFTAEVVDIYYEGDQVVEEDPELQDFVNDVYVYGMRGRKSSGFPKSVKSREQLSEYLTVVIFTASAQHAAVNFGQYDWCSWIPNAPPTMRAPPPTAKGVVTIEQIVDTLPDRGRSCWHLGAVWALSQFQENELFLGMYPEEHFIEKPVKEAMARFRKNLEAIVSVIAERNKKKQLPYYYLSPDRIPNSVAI
Activity [1] [µM],Activity [2] [µM],Activity [3] [µM],Activity [4] [µM],Activity [5] [µM],Structure (SMILES)
> 300,> 300,> 300,,,O=C1CCN(c2ccccc2)N1
> 300,> 300,> 300,> 300,> 300,CCOC(=O)c1c2cccccc-2c2c(OCC)oc(=O)c(C#N)c12
